Here are results for eleven molecules from US10160743B2, “Sulphamoylthiophenamide derivatives and the use thereof as medicaments for the treatment of hepatitis B” (Janssen Sciences Ireland UC, priority 2013, dated 2018).

Where only a bound is given, the exact number is not on record here.

The test system of data set [1] is HBV. Nature of the data set: Anti-HBV activity, HepG2.2.15 cell line, HBV DNA from secreted virions by realtime PCR. It is filed as cell-based, Hepatitis B virus. The following applies: HepG2.2.15 cells, 6 days of treatment.
The subject of data set [2] is HBV. Description: Anti-HBV activity, HepG2.117 cell line (Tet-off), intracellular HBV DNA by realtime PCR. It is filed as cell-based, Hepatitis B virus. The following applies: HepG2.117 cells, 3 days of treatment.
The next data set has as its system HepG2 cells. Nature of the data set: Cytotoxicity in HepG2 cells, Resazurin assay. It is filed as cell-based. The following applies: incubated for 4 days, Resazurin viability.
Data set [3] in a line: Cytotoxicity in HepG2 cells, Resazurin assay. It is filed as cell-based. The following applies: human, incubated for 4 days, Resazurin viability.
[4] abbreviates: Hepatitis B virus, HepG2.2.15, 144 h.
[5] abbreviates: Hepatitis B virus, HepG2.117, 72 h.

In the case of `Cc1cc(NC(=O)c2cc(S(=O)(=O)NC3(C)CCOC3)sc2C)ccc1F` (racemic) [Compound 16b, N-(4-fluoro-3-methyl-phenyl)-2-methyl-5-[(3-methyltetrahydrofuran-3yl)sulfamoyl]thiophene-3-carboxamide], the concentration for a half-maximal effect (EC50) came out at 28 nM in the data set with HBV [1] and 26 nM with HBV [2]. Further, the CC50 in the data set on HepG2 cells is > 25000 nM.
As for `Cc1cc(NC(=O)c2cc(S(=O)(=O)NC3(C)CCOC3)sc2C)ccc1F` (racemic) [Compound 16a, N-(4-fluoro-3-methyl-phenyl)-2-methyl-5-[(3-methyltetrahydrofuran-3yl)sulfamoyl]thiophene-3-carboxamide], the figures for the half-maximal effective concentration (EC50) in the data set with HBV [1] and in the data set with HBV [2] were 75 nM and 87 nM, respectively. In addition, the 50% cytotoxic concentration (CC50) with HepG2 cells was > 25000 nM.
In the case of `Cc1sc(S(=O)(=O)NC(C)(C)C)cc1C(=O)Nc1ccc(F)c(Cl)c1` [Compound 26, 5-(tert-Butylsulfamoyl)-N-(3-chloro-4-fluorophenyl)-2-methylthiophene-3-carboxamide], the figures for the concentration giving a half-maximal response (EC50) in the data set with HBV [1] (setting [4]) and in the data set with HBV [2] (setting [5]) were 170 nM and 51 nM, respectively. The molecule also registered a half-maximal cytotoxic concentration (CC50) at 4 days in data set [3] of 11500 nM.
Turning to `Cc1cc(NC(=O)c2cc(S(=O)(=O)NC3(C)CCOC3)sc2C)ccc1F` (racemic) [Compound 16, N-(4-fluoro-3-methyl-phenyl)-2-methyl-5-[(3-methyltetrahydrofuran-3-yl)sulfamoyl]thiophene-3-carboxamide], the concentration giving a half-maximal response (EC50) in the data set with HBV [1] stood at 54 nM; in the data set with HBV [2], 48 nM. The cytotoxic concentration (CC50) at 4 days in data set [3] is > 25000 nM.
As for `Cc1sc(S(=O)(=O)NC2(C(F)(F)F)CCOC2)cc1C(=O)Nc1cccc(C(F)(F)F)c1` (racemic) [Compound 41, 2-methyl-N-[3-(trifluoromethyl)phenyl]-5-[[3-(trifluoromethyl)tetrahydrofuran-3-yl]sulfamoyl]thiophene-3-carboxamide], the EC50 in the data set on HBV [1] (setting [4]) was 550 nM; in the data set on HBV [2] (setting [5]) it was > 1000 nM. Moreover, the CC50 at 4 days in data set [3] was > 25000 nM.
For the molecule `Cc1sc(S(=O)(=O)N[C@H](C)C(F)(F)F)cc1C(=O)Nc1ccc(F)c(Br)c1` [Compound 48, N-(3-bromo-4-fluoro-phenyl)-2-methyl-5-[[(1R)-2,2,2-trifluoro-1-methyl-ethyl]sulfamoyl]thiophene-3-carboxamide], the EC50 with HBV [1] (setting [4]) is 160 nM; with HBV [2] (setting [5]) it was 280 nM. Moreover, the midpoint of cytotoxicity in data set [3], the CC50 at 4 days, lay at 7730 nM.
For the molecule `Cc1sc(S(=O)(=O)NC2(C)COC2)cc1C(=O)Nc1ccc(F)c(Cl)c1` [Compound 28, N-(3-Chloro-4-fluorophenyl)-2-methyl-5-[(3-methyloxetan-3-yl)-sulfamoyl]thiophene-3-carboxamide], the half-maximal effective concentration (EC50) was 34 nM in the data set on HBV [1] (setting [4]) and 41 nM in the data set on HBV [2] (setting [5]). In addition, the cytotoxic concentration (CC50) at 4 days in data set [3] is > 25000 nM.
`Cc1cc(NC(=O)c2cc(S(=O)(=O)NC3(C)COC3)sc2C)cc(C#N)c1F` [Compound 44, N-(3-cyano-4-fluoro-5-methyl-phenyl)-2-methyl-5-[(3-methyloxetan-3-yl)sulfamoyl]thiophene-3-carboxamide]: the concentration giving a half-maximal response (EC50) is 820 nM in the data set on HBV [1] (setting [4]) and 450 nM in the data set with HBV [2] (setting [5]). Moreover, in data set [3], the 50% cytotoxic concentration (CC50) at 4 days was > 25000 nM.
Consider `Cc1sc(S(=O)(=O)NC2(C)COC2)cc1C(=O)Nc1ccc(F)c(Br)c1` [Compound 29, N-(3-Bromo-4-fluorophenyl)-2-methyl-5-[(3-methyloxetan-3-yl)-sulfamoyl]thiophene-3-carboxamide], for which the 50% effective concentration (EC50) in the data set with HBV [1] (setting [4]) and in the data set with HBV [2] (setting [5]) was 120 nM in each case. The same molecule registered a CC50 at 4 days in data set [3] of 13200 nM.
Regarding `Cc1sc(S(=O)(=O)NC2(C(F)(F)F)CC2)cc1C(=O)Nc1ccc(F)c(F)c1` [Compound 34, N-(3,4-Difluorophenyl)-2-methyl-5-{[1-(trifluoromethyl)cyclopropyl]-sulfamoyl}thiophene-3-carboxamide], the EC50 with HBV [1] (setting [4]) stood at 100 nM; in the data set with HBV [2] (setting [5]), 130 nM. Besides, in data set [3], half-maximal cytotoxicity (CC50 at 4 days) was put at 17700 nM.
For the molecule `Cc1sc(S(=O)(=O)NC2(C(F)(F)F)CCOC2)cc1C(=O)Nc1ccc(F)c(C#N)c1` (racemic) [Compound 54, N-(3-cyano-4-fluoro-phenyl)-2-methyl-5-[[3-(trifluoromethyl)tetrahydrofuran-3-yl]sulfamoyl]thiophene-3-carboxamide], the results for the half-maximal effective concentration (EC50) with HBV [1] (setting [4]) and in the data set with HBV [2] (setting [5]) were 180 nM and 100 nM, respectively. Moreover, the CC50 at 4 days in data set [3] was > 25000 nM.
